According to patent US20250152626A1, “CONSTRUCTION AND APPLICATION OF ENHANCED NEUTROPHIL DRUG” (China Pharmaceutical University, priority 2023, published 2025):

B1: IFNγ (protein, UniProt P01579 24-161, looked up)
Interferon gamma: QDPYVKEAENLKKYFNAGHSDVADNGTLFLGILKNWKEESDRKIMQSQIVSFYFKLFKNFKDDQSIQKSVETIKEDMNVKFFNSNKKKRDDFEKLTNYSVTDLNVQRKAIHELIQVMAELSPAAKTGKRKRSQMLFRG
notes: cytokine, single inducer

System: Human neutrophils
Assay: Effect of single inducers on neutrophil viability (Example 1)
Type: cell-based
Details: FIG. 2; for concentration with the best effect on neutrophil lifespan: cytokine inducers tested at 0-100 ng/mL; for effect on neutrophil lifespan / viability: single inducer 8 h in 1640 medium, inducer removed, culture 24 h, apoptosis by flow cytometry
Description: Human neutrophils were incubated with different concentrations of single inducers in 1640 medium for 8 h. Different concentrations of single inducers included: • inducer 1 (IFNγ): 0, 10, 20, 30, 50, 100 ng/mL; • inducer 2 (GM-CSF): 0, 10, 20, 30, 50, 100 ng/mL; • inducer 3 (TNFα): 0, 10, 20, 30, 50, 100 ng/mL; • inducer 4 (duvalumab): 0.1, 0.5, 1, 2, 3, 5, 8, 10 μg/mL; • inducer 5 (avelumab): 0.1, 0.5, 1, 2, 3, 5, 8, 10 μg/mL; • inducer 6 (Q-VD-Oph): 1, 10, 20, 50, 60, 80, 100 μM; and • inducer 7 (Nec-1): 1, 10, 20, 50, 60, 80, 100 μM; and • conditions of culture were 37° C. and 5% CO2. The apoptosis of neutrophils was detected by flow cytometry after removing the inducer and continuing culture for 24 h.

[1] = PD-L1 inhibitors tested at 0.1-10 μg/mL
[2] = apoptosis inhibitors tested at 1-100 μM

Row | Molecule | concentration with the best effect on neutrophil lifespan | effect on neutrophil lifespan / viability | concentration with the best effect on neutrophil viability [1] | concentration with the best effect on neutrophil viability [2]
1 | GM-CSF [inducer 2] | 20 ng/mL | significantly prolong the lifespan of neutrophils | – | –
2 | duvalumab [inducer 4] | – | increase neutrophil viability | 2 µg/mL | –
3 | avelumab [inducer 5] | – | increase neutrophil viability | 2 µg/mL | –
4 | CN1C(=O)C(Cc2c[nH]c3ccccc23)NC1=S (stereo not drawn) [inducer 7, Nec-1] | – | increase neutrophil viability | – | 50 µM
5 | CC(C)[C@H](NC(=O)c1ccc2ccccc2n1)C(=O)N[C@@H](CC(=O)O)C(=O)COc1c(F)cccc1F [inducer 6, Q-VD-Oph] | – | increase neutrophil viability | – | 50 µM
6 | B1 | 20 ng/mL | significantly prolong the lifespan of neutrophils | – | –
